# Laboratory results taken from patent US8778631B2, “Mono charging system for selectively introducing non-native amino acids into proteins using an in vitro protein synthesis system” (priority 2009, dated 2014).
# Target: T1, PheRS (Escherichia coli, UniProt P08312)
# T1 construct: endogenous in cells; host or cells: cell-free extract (lysate) of E. coli strain KGK10
# Experiment: Inhibition of the rate of cell-free synthesis of turboGFP by Phe-SA
# Type: biochemical, E. coli
# Details: cell-free synthesis of turboGFPY50TAG with pAF-tRNACUA^Phe
# Description: A modified “run-off procedure” was used to prepare the cell-free extract. Fermentation volume to generate sufficient cell-free extract was typically 2.5× the desired cell-free reaction volume. To inactivate the reducing activity of the cell extract, iodoacetamide (IAM) at various concentrations was added as previously described (Yang, Kanter et al. (2004) Biotechnol Prog, 20, 1689-96). Gene expression was under the control of the T7 promoter. In order to facilitate translation initiation, genes were synthesized (DNA 2.0, Menlo Park, Calif.) with synonymous codons at the 5′ end of the gene with ATG start codon (N-terminal methionine residue) optimized for mRNA instability as measured by mRNA ΔGfold in the −6 to +37 positions (Kudla, Murray et al. (2009) Science, 324, 255-258) and rare codons were replaced.
# Cell-free reactions were run at 30° C. containing 8 mM magnesium glutamate, 10 mM ammonium glutamate, 130 mM potassium glutamate, 35 mM sodium pyruvate, 1.2 mM AMP, 0.86 mM each of GMP, UMP, & CMP, 2 mM amino acids (1 mM for tyrosine), 4 mM sodium oxalate, 1 mM putrescine, 1.5 mM spermidine, 15 mM potassium phosphate, 100 nM T7 RNA polymerase, 2-50 nM DNA template(s), 1-10 μM E. coli DsbC, and 24-30% (v/v) IAM-treated cell-free extract.
# T1 sequence (P07395 whole entry): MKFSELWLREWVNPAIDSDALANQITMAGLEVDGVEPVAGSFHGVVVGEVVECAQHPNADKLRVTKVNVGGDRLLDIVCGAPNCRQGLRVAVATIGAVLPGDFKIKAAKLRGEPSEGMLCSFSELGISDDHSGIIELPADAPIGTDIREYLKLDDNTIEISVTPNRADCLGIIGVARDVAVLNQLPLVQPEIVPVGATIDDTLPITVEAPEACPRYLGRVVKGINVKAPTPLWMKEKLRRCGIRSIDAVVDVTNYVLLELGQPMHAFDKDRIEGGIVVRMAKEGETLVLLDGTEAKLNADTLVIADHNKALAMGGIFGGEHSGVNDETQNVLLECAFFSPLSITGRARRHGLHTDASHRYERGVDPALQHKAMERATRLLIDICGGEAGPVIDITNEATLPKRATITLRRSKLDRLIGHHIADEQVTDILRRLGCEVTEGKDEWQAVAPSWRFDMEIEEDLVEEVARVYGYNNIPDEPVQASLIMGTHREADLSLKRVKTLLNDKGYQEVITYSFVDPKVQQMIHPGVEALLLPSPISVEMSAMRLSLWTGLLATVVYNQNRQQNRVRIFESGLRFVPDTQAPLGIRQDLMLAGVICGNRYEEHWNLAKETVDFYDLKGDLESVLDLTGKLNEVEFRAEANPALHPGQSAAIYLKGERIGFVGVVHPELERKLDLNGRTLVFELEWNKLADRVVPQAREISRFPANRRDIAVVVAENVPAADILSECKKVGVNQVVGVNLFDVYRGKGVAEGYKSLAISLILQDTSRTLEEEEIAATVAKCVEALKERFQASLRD
# T1 sequence (P08312 whole entry): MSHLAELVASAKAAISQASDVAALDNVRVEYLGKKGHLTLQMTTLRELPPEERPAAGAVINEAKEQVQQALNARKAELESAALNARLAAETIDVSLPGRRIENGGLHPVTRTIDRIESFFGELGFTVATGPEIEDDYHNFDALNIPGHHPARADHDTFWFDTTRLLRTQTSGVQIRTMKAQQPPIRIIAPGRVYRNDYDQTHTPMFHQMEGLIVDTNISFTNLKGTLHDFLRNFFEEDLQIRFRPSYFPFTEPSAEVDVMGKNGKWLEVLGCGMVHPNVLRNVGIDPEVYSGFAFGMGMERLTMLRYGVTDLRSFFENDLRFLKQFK
structure (smiles),measurement,value
"Nc1ncnc2c1ncn2[C@@H]1O[C@H](COS(=O)(=O)NC(=O)[C@@H](N)Cc2ccccc2)[C@@H](O)[C@H]1O [Phe-SA, 5′-O—[N-(Phenylalanyl)sulfamoyl]adenosine]",time after which the inhibitor begins to lose its effectiveness,7 to 8 h
